In publication PMC10458893, “Design of Protegrin-1 Analogs with Improved Antibacterial Selectivity” (Pharmaceutics, 2023):
Converted amounts (≈) assume the structure as drawn. Positions of bridges follow the written chain, without caps; N, C: chain ends. Residues, ends and D or L forms follow the SMILES beside them.

Experiments:
[1] = tested on: freshly isolated human erythrocytes (hRBCs); experiment: Hemolysis assay (hemoglobin release); assay type: cell-based; conditions: red cells of human, 64
Source text: To assess the hemolytic activity of the compounds, freshly isolated human erythrocytes (hRBCs) were used according to the methodology described in a previous study. Melittin was used as a positive peptide control that induces significant hemolysis. Isotonic phosphate buffer (PBS) served as a negative control, while 0.1% Triton X-100 solution was used as a control for complete hemolysis.

E. coli ATCC 25922 [2] = experiment: Systemic septicemia infection mice model; assay type: in vivo; conditions: BALB/c mice n = 5, i.p. E. coli ATCC 25922 10^6 CFU with mucin, 5 mg/kg i.p. at 1 h and 4 h, 7 days
Experimental: Experiments were performed with male and female 8–10-week-old BALB/c mice (22–24 g, “Andreevka” laboratory animal nursery FMBA, Russia) according to the previously described method. Briefly, a total of 3 groups of 5 mice per group were infected by intraperitoneal (i.p.) injection of the bacterial inoculum (E. coli ATCC 25922), 10^6 colony forming units (CFU) per animal, in the presence of mucin. All the animals received two i.p. injections: 1 h and 4 h after bacterial challenge. The first group received ciprofloxacin (Sigma-Aldrich, St. Louis, MO, USA) as a positive control at a dose of 10 mg/kg per injection. The second group received peptide [V16R] at a dose of 5 mg/kg per injection. The third group received PBS as a vehicle control. Animals were monitored for 7 days post-infection. All the surviving mice were euthanized by CO2 asphyxiation. The spleen was aseptically removed, homogenized, serially diluted, and plated on Endo agar to detect CFU in a sample.

all the test strains = assay type: cell-based; conditions: geometric mean over the 10 test strains
How it was run: (§1)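 MIC = lowest peptide concentration with no resazurin color change. Two-fold serial dilutions, 24 h incubation, then resazurin 0.1 mg/mL for 2 h. Median of ≥3 independent triplicate experiments.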

E. coli BW 25113 = assay type: cell-based; conditions: two-fold serial dilutions, 24 h incubation, resazurin read-out; median of at least three independent experiments in triplicate
How it was run: as §1

E. coli ML35p = assay type: cell-based; conditions: ML35p, 24 h
How it was run: as §1

E. coli ATCC 25922 [3] = assay type: cell-based; conditions: ATCC 25922, 24 h
How it was run: as §1

[4] = tested on: Acinetobacter baumannii (strain XDR CI 2675); assay type: cell-based; conditions: strain XDR CI 2675, 24 h
How it was run: as §1

P. aeruginosa PAO1 = assay type: cell-based, Pseudomonas aeruginosa; conditions: PAO1, 24 h
How it was run: as §1

P. aeruginosa ATCC 27853 = assay type: cell-based, Pseudomonas aeruginosa; conditions: ATCC 27853, 24 h
How it was run: as §1

[5] = tested on: K. pneumoniae ATCC 700603; assay type: cell-based, Klebsiella pneumoniae; conditions: ATCC 700603, 24 h
How it was run: as §1

M. luteus B-1314 = assay type: cell-based, Micrococcus luteus; conditions: B-1314, 24 h
How it was run: as §1

[6] = tested on: human keratinocyte cell line (HaCaT); experiment: Cytotoxicity MTT assay; assay type: cell-based; conditions: 18 h, 128
How it was run: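 Colorimetric MTT dye-reduction assay on human HaCaT keratinocytes, with peptide-free wells as 100% survival. Each peptide tested in two separate experiments.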

S. aureus ATCC 29213 = assay type: cell-based, Staphylococcus aureus; conditions: ATCC 29213, 24 h
How it was run: as §1

S. aureus 209P = assay type: cell-based, Staphylococcus aureus; conditions: 24 h
How it was run: as §1

CC(C)C[C@H](NC(=O)[C@H](CCCNC(=N)N)NC(=O)CNC(=O)CNC(=O)[C@@H](N)CCCNC(=N)N)C(=O)N[C@H]1CSSC[C@@H](C(=O)N[C@@H](CCCNC(=N)N)C(=O)NCC(=O)N[C@@H](CCCNC(=N)N)C(=O)O)NC(=O)[C@H](C(C)C)NC(=O)[C@@H]2CSSC[C@H](NC(=O)[C@H](Cc3ccc(O)cc3)NC1=O)C(=O)N[C@@H](CCCNC(=N)N)C(=O)N[C@@H](CCCNC(=N)N)C(=O)N[C@@H](CCCNC(=N)N)C(=O)N[C@@H](Cc1ccccc1)C(=O)N2 [[V16R]] (H-RGGRLCYCRRRFCVCRGR-OH; disulfide 6-15, 8-13) was tested, and the “Hemolytic activity, % (64 μM)” value [1] was 2.8 (±0.2) %, the Deaths of mice (E. coli ATCC 25922 [2]) was “two out of five” and the “Therapeutic efficacy (survival)” value (E. coli ATCC 25922 [2]; chloride form) was 60%. The “MIC (GM), geometric mean of the peptide's MICs against all the test strains” value (all the test strains) was 0.8 µM, the “MIC, E. coli BW 25113” value (E. coli BW 25113) was 0.25 µM (≈ 0.553 µg/mL) and the “MIC, E. coli ML35p” value (E. coli ML35p) was 0.25 µM (≈ 0.553 µg/mL). For the same molecule, the “MIC, E. coli ATCC 25922” value (E. coli ATCC 25922 [3]) was 0.5 µM (≈ 1.11 µg/mL), the “MIC, A. baumannii” value [4] was 0.125 µM (≈ 0.277 µg/mL) and the “MIC, P. aeruginosa PAO1” value (P. aeruginosa PAO1) was 1 µM (≈ 2.21 µg/mL). The “MIC, P. aeruginosa ATCC 27853” value (P. aeruginosa ATCC 27853) was 0.5 µM (≈ 1.11 µg/mL), the “MIC, K. pneumoniae ATCC 700603” value [5] was 4 µM (≈ 8.85 µg/mL) and the “MIC, M. luteus B-1314” value (M. luteus B-1314) was 1 µM (≈ 2.21 µg/mL). For the same molecule, the “Cell Viability, % (128 μM)” value [6] was 80.0 (± 8.62) %, the “MIC, S. aureus ATCC 29213” value (S. aureus ATCC 29213) was 4 µM (≈ 8.85 µg/mL) and the “MIC, S. aureus 209P” value (S. aureus 209P) was 4 µM (≈ 8.85 µg/mL).
